#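 Interpolation was linear, between the two tested concentrations surrounding the appropriate level; five concentrations were tested over 48 hours in 96-well plates. TGI marks complete inhibition of growth.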
# Experiments:
# Assay in all cases: NCI-60 cell line screen, 48 h
# SF-268 CNS = tested on: SF-268 CNS
# MCF7 breast = tested on: MCF7 breast
# SF-295 CNS = tested on: SF-295 CNS
# M14 melanoma = tested on: M14 melanoma
# T-47D breast = tested on: T-47D breast
# MDA-MB-231 breast = tested on: MDA-MB-231 breast
# SK-MEL-28 melanoma = tested on: SK-MEL-28 melanoma
# KM12 colon = tested on: KM12 colon
# A549 NSCLC = tested on: A549 NSCLC
# OVCAR-3 ovarian = tested on: OVCAR-3 ovarian
# CAKI-1 renal = tested on: CAKI-1 renal
# LOX IMVI melanoma = tested on: LOX IMVI melanoma
# EKVX NSCLC = tested on: EKVX NSCLC
# COLO 205 colon = tested on: COLO 205 colon
# HS 578T breast = tested on: HS 578T breast
# SN12C renal = tested on: SN12C renal
# HCC-2998 colon = tested on: HCC-2998 colon
# NCI/ADR-RES ovarian = tested on: NCI/ADR-RES ovarian
# OVCAR-4 ovarian = tested on: OVCAR-4 ovarian
# OVCAR-8 ovarian = tested on: OVCAR-8 ovarian
# MOLT-4 leukemia = tested on: MOLT-4 leukemia
# SNB-19 CNS = tested on: SNB-19 CNS
# 786-0 renal = tested on: 786-0 renal
# IGROV1 ovarian = tested on: IGROV1 ovarian
# A498 renal = tested on: A498 renal
# HOP-62 NSCLC = tested on: HOP-62 NSCLC
# UO-31 renal = tested on: UO-31 renal
# RPMI-8226 leukemia = tested on: RPMI-8226 leukemia
# MDA-MB-435 = tested on: MDA-MB-435
# UACC-257 melanoma = tested on: UACC-257 melanoma
# SK-MEL-5 melanoma = tested on: SK-MEL-5 melanoma
# ACHN renal = tested on: ACHN renal
# SF-539 CNS = tested on: SF-539 CNS
# NCI-H522 lung = tested on: NCI-H522 lung
# SR leukemia = tested on: SR leukemia
# HCT-15 colon = tested on: HCT-15 colon
# BT-549 breast = tested on: BT-549 breast
# DU-145 prostate = tested on: DU-145 prostate
# PC-3 prostate = tested on: PC-3 prostate
# SW-620 colon = tested on: SW-620 colon
# RXF 393 renal = tested on: RXF 393 renal
# MDA-N = tested on: MDA-N
# TK-10 renal = tested on: TK-10 renal
# HOP-92 NSCLC = tested on: HOP-92 NSCLC
# MALME-3M melanoma = tested on: MALME-3M melanoma
# NCI-H226 lung = tested on: NCI-H226 lung
# SK-OV-3 ovarian = tested on: SK-OV-3 ovarian
# NCI-H23 lung = tested on: NCI-H23 lung
# OVCAR-5 ovarian = tested on: OVCAR-5 ovarian
# HT29 colon = tested on: HT29 colon
# U251 CNS = tested on: U251 CNS
# SK-MEL-2 melanoma = tested on: SK-MEL-2 melanoma
# UACC-62 melanoma = tested on: UACC-62 melanoma
# K-562 leukemia = tested on: K-562 leukemia
# HCT-116 colon = tested on: HCT-116 colon
# SNB-75 CNS = tested on: SNB-75 CNS
# NCI-H460 lung = tested on: NCI-H460 lung
# HL-60(TB) leukemia = tested on: HL-60(TB) leukemia
# CCRF-CEM leukemia = tested on: CCRF-CEM leukemia
compound,measurement,setting,value
CC12CCC(=O)C=C1CCC1C2C(O)CC2(C)C(c3csc(N)n3)CCC12 (stereo unspecified),TGI,SF-268 CNS,> 100 µM
same,TGI,MCF7 breast,> 100 µM
same,TGI,SF-295 CNS,> 100 µM
same,TGI,M14 melanoma,> 100 µM
same,TGI,T-47D breast,> 100 µM
same,TGI,MDA-MB-231 breast,> 100 µM
same,TGI,SK-MEL-28 melanoma,> 100 µM
same,TGI,KM12 colon,> 100 µM
same,TGI,A549 NSCLC,> 100 µM
same,TGI,OVCAR-3 ovarian,> 100 µM
same,TGI,CAKI-1 renal,> 100 µM
same,TGI,LOX IMVI melanoma,> 100 µM
same,TGI,EKVX NSCLC,> 100 µM
same,TGI,COLO 205 colon,> 100 µM
same,TGI,HS 578T breast,> 100 µM
same,TGI,SN12C renal,> 100 µM
same,TGI,HCC-2998 colon,> 100 µM
same,TGI,NCI/ADR-RES ovarian,> 100 µM
same,TGI,OVCAR-4 ovarian,> 100 µM
same,TGI,OVCAR-8 ovarian,> 100 µM
same,TGI,MOLT-4 leukemia,> 100 µM
same,TGI,SNB-19 CNS,> 100 µM
same,TGI,786-0 renal,> 100 µM
same,TGI,IGROV1 ovarian,> 100 µM
same,TGI,A498 renal,> 100 µM
same,TGI,HOP-62 NSCLC,> 100 µM
same,TGI,UO-31 renal,> 100 µM
same,TGI,RPMI-8226 leukemia,> 100 µM
same,TGI,MDA-MB-435,> 100 µM
same,TGI,UACC-257 melanoma,> 100 µM
same,TGI,SK-MEL-5 melanoma,> 100 µM
same,TGI,ACHN renal,> 100 µM
same,TGI,SF-539 CNS,> 100 µM
same,TGI,NCI-H522 lung,> 100 µM
same,TGI,SR leukemia,> 100 µM
same,TGI,HCT-15 colon,> 100 µM
same,TGI,BT-549 breast,> 100 µM
same,TGI,DU-145 prostate,> 100 µM
same,TGI,PC-3 prostate,> 100 µM
same,TGI,SW-620 colon,> 100 µM
same,TGI,RXF 393 renal,> 100 µM
same,TGI,MDA-N,> 100 µM
same,TGI,TK-10 renal,> 100 µM
same,TGI,HOP-92 NSCLC,> 100 µM
same,TGI,MALME-3M melanoma,> 100 µM
same,TGI,NCI-H226 lung,> 100 µM
same,TGI,SK-OV-3 ovarian,> 100 µM
same,TGI,NCI-H23 lung,> 100 µM
same,TGI,OVCAR-5 ovarian,> 100 µM
same,TGI,HT29 colon,> 100 µM
same,TGI,U251 CNS,> 100 µM
same,TGI,SK-MEL-2 melanoma,> 100 µM
same,TGI,UACC-62 melanoma,> 100 µM
same,TGI,K-562 leukemia,> 100 µM
same,TGI,HCT-116 colon,> 100 µM
same,TGI,SNB-75 CNS,> 100 µM
CCc1cc(O)c(Cl)c(C)c1Cl,TGI,SF-268 CNS,> 100 µM
same,TGI,MCF7 breast,61.6 µM
same,TGI,SF-295 CNS,42.5 µM
same,TGI,M14 melanoma,63.6 µM
same,TGI,T-47D breast,> 100 µM
same,TGI,MDA-MB-231 breast,81.1 µM
same,TGI,SK-MEL-28 melanoma,36.6 µM
same,TGI,KM12 colon,28.5 µM
same,TGI,A549 NSCLC,> 100 µM
same,TGI,OVCAR-3 ovarian,33.5 µM
same,TGI,CAKI-1 renal,32.7 µM
same,TGI,LOX IMVI melanoma,31.8 µM
same,TGI,EKVX NSCLC,33.7 µM
same,TGI,COLO 205 colon,41.4 µM
same,TGI,HS 578T breast,67.7 µM
same,TGI,SN12C renal,29.5 µM
same,TGI,HCC-2998 colon,32.7 µM
same,TGI,NCI/ADR-RES ovarian,50.1 µM
same,TGI,NCI-H460 lung,33.7 µM
same,TGI,OVCAR-4 ovarian,28.5 µM
same,TGI,OVCAR-8 ovarian,40.6 µM
same,TGI,SNB-19 CNS,95.6 µM
same,TGI,786-0 renal,30.8 µM
same,TGI,IGROV1 ovarian,33.8 µM
same,TGI,A498 renal,28.2 µM
same,TGI,HOP-62 NSCLC,33.2 µM
same,TGI,UO-31 renal,33.2 µM
same,TGI,RPMI-8226 leukemia,42.3 µM
same,TGI,MDA-MB-435,30.1 µM
same,TGI,UACC-257 melanoma,35.6 µM
same,TGI,SK-MEL-5 melanoma,33.3 µM
same,TGI,HL-60(TB) leukemia,> 100 µM
same,TGI,ACHN renal,31.5 µM
same,TGI,SF-539 CNS,34.8 µM
same,TGI,NCI-H522 lung,37.6 µM
same,TGI,HCT-15 colon,34.6 µM
same,TGI,BT-549 breast,36 µM
same,TGI,DU-145 prostate,31.2 µM
same,TGI,PC-3 prostate,40.2 µM
same,TGI,SW-620 colon,43.6 µM
same,TGI,RXF 393 renal,28.7 µM
same,TGI,MDA-N,29.9 µM
same,TGI,TK-10 renal,35.9 µM
same,TGI,HOP-92 NSCLC,33.7 µM
same,TGI,CCRF-CEM leukemia,50.1 µM
same,TGI,MALME-3M melanoma,42.7 µM
same,TGI,SK-OV-3 ovarian,34.5 µM
same,TGI,NCI-H23 lung,36.9 µM
same,TGI,OVCAR-5 ovarian,52.2 µM
same,TGI,HT29 colon,39.1 µM
same,TGI,U251 CNS,38.1 µM
same,TGI,SK-MEL-2 melanoma,> 100 µM
same,TGI,UACC-62 melanoma,35.1 µM
same,TGI,HCT-116 colon,31.5 µM
same,TGI,SNB-75 CNS,34.1 µM
